Results: patent US20210214375A1 (LUNDBECK LA JOLLA RESEARCH CENTER, INC., priority 2017, published 2021)

Assays:
MGLL = target: T1, MGLL (Mus musculus, UniProt O35678); assay: In vitro competitive activity-based protein profiling, mouse brain proteome; format: biochemical
T1 construct: Brain; from tissue; host or cells: mouse brain proteome
T1 sequence (O35678 1-303): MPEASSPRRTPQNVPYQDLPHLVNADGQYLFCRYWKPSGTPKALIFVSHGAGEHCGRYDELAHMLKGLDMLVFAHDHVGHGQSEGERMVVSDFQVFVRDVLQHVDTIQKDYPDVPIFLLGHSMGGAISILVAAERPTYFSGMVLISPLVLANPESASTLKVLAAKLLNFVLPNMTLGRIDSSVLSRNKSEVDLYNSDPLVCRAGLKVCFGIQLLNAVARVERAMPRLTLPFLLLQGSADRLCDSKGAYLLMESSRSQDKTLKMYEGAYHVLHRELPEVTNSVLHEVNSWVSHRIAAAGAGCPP
Description: [Worded in the source for another species; this species is reported under the same test.] (§1) Proteomes (human prefrontal cortex or cell membrane fractions) (50 μL, 1.0 mg/mL total protein concentration) were preincubated with varying concentrations of inhibitors at 37° C. After 30 min, FP—Rh or HT-01 (1.0 μL, 50 μM in DMSO) was added and the mixture was incubated for another 30 min at room temperature. Reactions were quenched with SDS loading buffer (15 μL-4×) and run on SDS-PAGE.

ABHD6 = target: T2, ABHD6 (Mus musculus, UniProt Q8R2Y0); assay: In vitro competitive activity-based protein profiling, mouse brain proteome, ABHD6; format: biochemical; settings: mouse
T2 construct: Brain; from tissue; host or cells: mouse brain proteome
T2 sequence (Q8R2Y0 1-336): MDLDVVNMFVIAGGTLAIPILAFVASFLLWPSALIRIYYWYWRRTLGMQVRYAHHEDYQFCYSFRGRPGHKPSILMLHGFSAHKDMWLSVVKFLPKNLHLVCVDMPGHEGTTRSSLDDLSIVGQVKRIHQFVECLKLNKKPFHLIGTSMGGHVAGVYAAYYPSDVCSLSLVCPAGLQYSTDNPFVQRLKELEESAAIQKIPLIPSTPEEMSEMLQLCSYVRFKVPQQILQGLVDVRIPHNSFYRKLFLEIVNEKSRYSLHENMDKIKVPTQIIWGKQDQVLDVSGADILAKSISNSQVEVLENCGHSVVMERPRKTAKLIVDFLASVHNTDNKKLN
Description: [Worded in the source for another target; this target is reported under the same test.] as §1

Row | IC50 (MGLL) | IC50 (ABHD6) | SMILES
1 | 100 to 1000 nM | > 1000 nM | O=C(OC(C(F)(F)F)C(F)(F)F)N1CCC2(CCN(Cc3ccc(C(F)(F)F)cc3N3CC4COCC4C3)CC2)C1 (stereo not shown) [Example 188, 1,1,1,3,3,3-Hexafluoropropan-2-yl 8-(2-(tetrahydro-1H-furo[3,4-c]pyrrol-5(3H)-yl)-4-(trifluoromethyl)benzyl)-2,8-diazaspiro[4.5]decane-2-carboxylate]
2 | 100 to 1000 nM | 100 to 1000 nM | O=C(OC(C(F)(F)F)C(F)(F)F)N1CC2(CCN(Cc3c(N4CCCC4)cccc3C(F)(F)F)CC2)C1 [Example 148, 1,1,1,3,3,3-Hexafluoropropan-2-yl 7-(2-(pynrolidin-1-yl)-4-(trifluoromethyl)benzyl)-2,7-diazaspiro[3.5]nonane-2-carboxylate]
3 | < 100 nM | < 100 nM | O=C(OC(C(F)(F)F)C(F)(F)F)N1CC2(CCN(Cc3ccc(C(F)(F)F)cc3N3CCOCC3)CC2)C1 [Example 40, 1,1,1,3,3,3-Hexafluoropropan-2-yl 7-(2-morpholino-4-(trifluoromethyl)benzyl)-2,7-diazaspiro[3.5]nonane-2-carboxylate]
4 | < 100 nM | 100 to 1000 nM | CS(=O)(=O)N1CCc2cccc(CN3CCC4(CC3)CCN(C(=O)OC(C(F)(F)F)C(F)(F)F)C4)c2C1 [Example 217, 1,1,1,3,3,3-Hexafluoropropan-2-yl 8-((2-(methylsulfonyl)-1,2,3,4-tetrahydroisoquinolin-8-yl)methyl)-2,8-diazaspiro[4.5]decane-2-carboxylate]
5 | > 1000 nM | 100 to 1000 nM | CCN1CCCc2cccc(CN3CCC4(CC3)CN(C(=O)OC(C(F)(F)F)C(F)(F)F)C4)c21 [Example 31, 1,1,1,3,3,3-Hexafluoropropan-2-yl 7-((1-ethyl-1,2,3,4-tetrahydroquinolin-8-yl)methyl)-2,7-diazaspiro[3.5]nonane-2-carboxylate]
6 | < 100 nM | 100 to 1000 nM | O=C(OC(C(F)(F)F)C(F)(F)F)N1CCC2(CC1)CN(Cc1c(Cl)cccc1N1CCCC1)C2 [Example 42, 1,1,1,3,3,3-Hexafluoropropan-2-yl 2-(2-chloro-6-(pyrrolidin-1-yl)benzyl)-2,7-diazaspiro[3.5]nonane-7-carboxylate]
7 | < 100 nM | > 1000 nM | CS(=O)(=O)N1CC2CN(c3cc(C(F)(F)F)ccc3CN3CCN(C(=O)OC(C(F)(F)F)C(F)(F)F)CC3)CC2C1 (stereo not shown) [Example 201, 1,1,1,3,3,3-Hexafluoropropan-2-yl 4-(2-(5-(methylsulfonyl)hexahydropyrrolo[3,4-c]pyrrol-2(1H)-yl)-4-(trifluoromethyl)benzyl)piperazine-1-carboxylate]
8 | < 100 nM | 100 to 1000 nM | O=C(OC(C(F)(F)F)C(F)(F)F)N1CCC2(CCCN2C(=O)c2ccc(Cl)cc2)CC1 [Example 13, 1,1,1,3,3,3-Hexafluoropropan-2-yl 1-(4-chlorobenzoyl)-1,8-diazaspiro[4.5]decane-8-carboxylate]
9 | 100 to 1000 nM | > 1000 nM | CC(=O)N1CCCC12CCN(c1cc(Cl)ccc1CN1CCN(C(=O)OC(C(F)(F)F)C(F)(F)F)CC1)CC2 [Example 204, 1,1,1,3,3,3-Hexafluoropropan-2-yl 4-(2-(1-acetyl-1,8-diazaspiro[4.5]decan-8-yl)-4-chlorobenzyl) piperazie-1-carboxylate]
10 | 100 to 1000 nM | > 1000 nM | CN1CC2(CCN(c3cc(Cl)ccc3CN3CCN(C(=O)OC(C(F)(F)F)C(F)(F)F)CC3)C2)C1 [Example 169, 1,1,1,3,3,3-Hexafluoropropan-2-yl 4-(4-chloro-2-(2-methyl-2,6-diazaspiro[3.4]octan-6-yl)benzyl)piperazine-1-carboxylate]
11 | < 100 nM | 100 to 1000 nM | CS(=O)(=O)N1CCCC12CCN(c1cc(C(F)(F)F)ccc1CN1CCN(C(=O)OC(C(F)(F)F)C(F)(F)F)CC1)CC2 [Example 209, 1,1,1,3,3,3-Hexafluoropropan-2-yl-((2-(1-(methylsulfonyl)-1,8-diazaspiro[4.5]decan-8-yl)-4-(trifluoromethyl)benzyl)piperazine-1-carboxylate]
12 | 100 to 1000 nM | 100 to 1000 nM | O=C(OC(C(F)(F)F)C(F)(F)F)N1CC2(CCN(Cc3c(N4CC5COCC5C4)cccc3C(F)(F)F)CC2)C1 (stereo not shown) [Example 33]
13 | 100 to 1000 nM | > 1000 nM | CCN1CC2(CCN(c3cc(Cl)ccc3CN3CCN(C(=O)OC(C(F)(F)F)C(F)(F)F)CC3)C2)C1 [Example 173, 1,1,1,3,3,3-Hexafluoropropan-2-yl 4-(4-chloro-2-(2-ethyl-2,6-diazaspiro[3.4]octan-6-yl)benzyl)piperazine-1-carboxylate]
14 | 100 to 1000 nM | > 1000 nM | CN1CC2CN(c3cc(Cl)ccc3CN3CCN(C(=O)OC(C(F)(F)F)C(F)(F)F)CC3)CC2C1 (stereo not shown) [Example 206, 1,1,1,3,3,3-Hexafluoropropan-2-yl 4-(4-chloro-2-(5-methylhexahydro-pyrrolo[3,4-c]pyrrol-2(1H)-yl)benzyl)piperazine-1-carboxylate]
15 | < 100 nM | 100 to 1000 nM | CC(=O)N1CCCc2cccc(CN3CC4(CCN(C(=O)OC(C(F)(F)F)C(F)(F)F)CC4)C3)c21 [Example 15, 1,1,1,3,3,3-Hexafluoropropan-2-yl 2-((1-acetyl-1,2,3,4-tetrahydroquinolin-8-yl)methyl)-2,7-diazaspiro[3.5]nonane-7-carboxylate]
16 | < 100 nM | < 100 nM | O=C(OC(C(F)(F)F)C(F)(F)F)N1CCC2(CC1)CN(Cc1ccc(Cl)c(Cl)c1)C2 [Example 67, 1,1,1,3,3,3-Hexafluoropropan-2-yl 2-(3,4-dichlorobenzyl)-2,7-diazaspiro[3.5]nonane-7-carboxylate]
17 | > 1000 nM | 100 to 1000 nM | CS(=O)(=O)N1CCC2(CCN(c3cc(Cl)cc(CN4CCCC45CN(C(=O)OC(C(F)(F)F)C(F)(F)F)C5)c3)CC2)C1 [Example 232]
18 | < 100 nM | < 100 nM | O=C(OC(C(F)(F)F)C(F)(F)F)N1CCC2(CC1)CN(Cc1c(Cl)cccc1N1CCC(F)CC1)C2 [Example 47, 1,1,1,3,3,3-Hexafluoropropan-2-yl 2-(2-chloro-6-(4-fluoropiperidin-1-yl)benzyl)-2,7-diazaspiro[3.5]nonane-7-carboxylate]
19 | < 100 nM | 100 to 1000 nM | O=C(OC(C(F)(F)F)C(F)(F)F)N1CCC2(CC1)CN(Cc1c(N3CCOCC3)cccc1C(F)(F)F)C2 [Example 43, 1,1,1,3,3,3-Hexafluoropropan-2-yl 2-(2-morpholino-6-(trifluoromethyl)benzyl)-2,7-diazaspiro[3.5]nonane-7-carboxylate]
20 | 100 to 1000 nM | 100 to 1000 nM | O=C(OC(C(F)(F)F)C(F)(F)F)N1CCC2(CC1)CN(Cc1ccc(Cl)cc1N1CCCCC1)C2 [Example 38, 1,1,1,3,3,3-Hexafluoropropan-2-yl 2-(4-chloro-2-(piperidin-1-yl)benzyl)-2,7-diazaspiro[3.5]nonane-7-carboxylate]
21 | 100 to 1000 nM | > 1000 nM | CS(=O)(=O)N1CCCC12CCN(c1cc(Cl)ccc1CN1CCN(C(=O)OC(C(F)(F)F)C(F)(F)F)CC1)CC2 [Example 205, 1,1,1,3,3,3-Hexafluoropropan-2-yl 4-(4-chloro-2-(1-(methylsulfonyl)-1,8-diazaspiro[4.5]decan-8-yl)benzyl)piperazine-1-carboxylate]
22 | < 100 nM | < 100 nM | O=C(OC(C(F)(F)F)C(F)(F)F)N1CCC2(CC1)CN(Cc1c(Cl)cccc1N1CCC3(CCOCC3)C1)C2 [Example 48, 1,1,1,3,3,3-Hexafluoropropan-2-yl 2-(2-chloro-6-(8-oxa-2-azaspiro[4.5]decan-2-yl)benzyl)-2,7-diazaspiro[3.5]nonane-7-carboxylate]
23 | > 1000 nM | > 1000 nM | CC(=O)N1CCCc2cccc(CN3CCC4(CC3)CCN(C(=O)OC(C(F)(F)F)C(F)(F)F)C4)c21 [Example 193, 1,1,1,3,3,3-Hexafluoropropan-2-yl 8-((1-acetyl-1,2,3,4-tetrahydroquinolin-8-yl)methyl)-2,8-diazaspiro[4.5]decane-2-carboxylate]
24 | 100 to 1000 nM | > 1000 nM | CC(=O)N1CC2CN(c3cc(Cl)ccc3CN3CCN(C(=O)OC(C(F)(F)F)C(F)(F)F)CC3)CC2C1 (stereo not shown) [Example 202, 1,1,1,3,3,3-Hexafluoropropan-2-yl 4-(2-(5-acetylhexahydro-pyrrolo[3,4-c]pyrrol-2(1H)-yl)-4-chlorobenzyl) piperazine-1-carboxylate]
25 | < 100 nM | < 100 nM | O=C(OC(C(F)(F)F)C(F)(F)F)N1CCC2(CC1)CN(Cc1cccc(Oc3ccccc3)c1)C2 [Example 78, 1,1,1,3,3,3-Hexafluoropropan-2-yl 2-(3-phenoxybenzyl)-2,7-diazaspiro[3.5]nonane-7-carboxylate]
26 | < 100 nM | 100 to 1000 nM | CCN1CCCc2cccc(CN3CC4(CCN(C(=O)OC(C(F)(F)F)C(F)(F)F)CC4)C3)c21 [Example 16, 1,1,1,3,3,3-Hexafluoropropan-2-yl 2-((1-ethyl-1,2,3,4-tetrahydroquinolin-8-yl)methyl)-2,7-diazaspiro[3.5]nonane-7-carboxylate]
